{"source": "patent US20060217308A1", "about": "“Compositions for the treatment of tumor pathologies, comprising internalin B (ln1B) of Listeria monocytogene protein or a fragment thereof” (priority 2005, published 2006)", "key": {"[1]": {"test_system": "poly-ubiquitinated proteins", "experiment": "FK1 functionality test: poly-ubiquitin immunoblot of HeLa cells treated with proteasome inhibitors", "type": "cell-based, human", "conditions": "60 minutes treatment, versus non-treated", "protocol": "(A) In1B was added (+) to HeLa cells. Lysates were immunoprecipitated using C12 rabbit polyclonal anti-Met antibody and blotted against Met (DL21 mAb). The same membrane was stripped and blotted against ubiquitin using FK1, a mAb that recognizes poly-ubiquitinated proteins, or P4D1, a mAb that recognizes both poly- and mono-ubiquitinated proteins. (B) Total cell extracts from Hela cells treated with […] epoximycin (lane 2) or […] clasto-lactacystin-β-lactone (lane 3) for 60 minutes, or non-treated cells (lane 1) were blotted against poly-ubiquitin (FK1) or actin. (C) ubiquitin ladder was blotted with FK1 or P4D1. The number of ubiquitin modules is indicated on the right. The molecular weight of protein markers is shown in the left of the panels, in kDa. In D and E, Hela Cells were transfected with siRNA to knock down Cbl expression (RNAi), or with RNA control (Control). (D) Cellular Cbl and actin were detected by immunoblotting. […]\nThe rapid degradation of Met after In B contact is different from the HGF-dependent degradation, which has been reported to take two hours (19-21), indicating differences in the biochemistry of the process. […] Samples from HeLa cells treated with In1B (5 nM) were immunoprecipitated using an anti-Met antibody, and then Met-immunoprecipitates were analyzed with an anti Met mAb (FIG. 3A1), FK1 (FIG. 3A2) or P4D1 (FIG. 3A3). […]"}, "Met [2]": {"test_system": "Met", "experiment": "Effect of proteasome and lysosome inhibitors on In1B-dependent degradation of Met", "type": "cell-based, human", "conditions": "HeLa cells pre-treated with inhibitor before addition of In1B; anti-Met immunoblot", "protocol": "(A) Hela cells were treated (+) with […] epoximycin, […] clasto-lactacystin-β-lactone (lactone), 20 mM ammonium chloride, or 5 μM bafilomycin A1 (Baf-A1) for 90 minutes before addition of In1B. Cell extracts were loaded in a SDS-PAGE gel followed by immunoblot with anti-Met antibody. […] (B) Surface exposed proteins of Hela cells were biotinylated (Biot +) before addition of In1B. In1B was added for two minutes to allow internalization of Met, then cells were washed and biotin was removed (see methods and text) from the surface. Samples were precipitated with neutravidin agarose and blotted against Met.\nMono-ubiquitination is the signal that induces endocytosis of RTKs after ligand binding and usually drives cargo proteins to lysosomal degradation (6, 17, 34). To study whether In1B-dependent degradation of Met is a proteasomal or a lysosomal event, HeLa cells were treated with clasto-p-lactacystin lactone or epoximycin, two inhibitors of proteasome degradation, and ammonium chloride or bafilomycin A1, two inhibitors of lysosome degradation, […] before the addition of In1B. Cellular extracts were then immunoblotted using anti Met antibodies (FIG. 4)."}, "[3]": {"target": "Met (hepatocyte growth factor receptor), endogenous in human HeLa cells (human) (UniProt P08581)", "sequence (P08581 25-1390)": "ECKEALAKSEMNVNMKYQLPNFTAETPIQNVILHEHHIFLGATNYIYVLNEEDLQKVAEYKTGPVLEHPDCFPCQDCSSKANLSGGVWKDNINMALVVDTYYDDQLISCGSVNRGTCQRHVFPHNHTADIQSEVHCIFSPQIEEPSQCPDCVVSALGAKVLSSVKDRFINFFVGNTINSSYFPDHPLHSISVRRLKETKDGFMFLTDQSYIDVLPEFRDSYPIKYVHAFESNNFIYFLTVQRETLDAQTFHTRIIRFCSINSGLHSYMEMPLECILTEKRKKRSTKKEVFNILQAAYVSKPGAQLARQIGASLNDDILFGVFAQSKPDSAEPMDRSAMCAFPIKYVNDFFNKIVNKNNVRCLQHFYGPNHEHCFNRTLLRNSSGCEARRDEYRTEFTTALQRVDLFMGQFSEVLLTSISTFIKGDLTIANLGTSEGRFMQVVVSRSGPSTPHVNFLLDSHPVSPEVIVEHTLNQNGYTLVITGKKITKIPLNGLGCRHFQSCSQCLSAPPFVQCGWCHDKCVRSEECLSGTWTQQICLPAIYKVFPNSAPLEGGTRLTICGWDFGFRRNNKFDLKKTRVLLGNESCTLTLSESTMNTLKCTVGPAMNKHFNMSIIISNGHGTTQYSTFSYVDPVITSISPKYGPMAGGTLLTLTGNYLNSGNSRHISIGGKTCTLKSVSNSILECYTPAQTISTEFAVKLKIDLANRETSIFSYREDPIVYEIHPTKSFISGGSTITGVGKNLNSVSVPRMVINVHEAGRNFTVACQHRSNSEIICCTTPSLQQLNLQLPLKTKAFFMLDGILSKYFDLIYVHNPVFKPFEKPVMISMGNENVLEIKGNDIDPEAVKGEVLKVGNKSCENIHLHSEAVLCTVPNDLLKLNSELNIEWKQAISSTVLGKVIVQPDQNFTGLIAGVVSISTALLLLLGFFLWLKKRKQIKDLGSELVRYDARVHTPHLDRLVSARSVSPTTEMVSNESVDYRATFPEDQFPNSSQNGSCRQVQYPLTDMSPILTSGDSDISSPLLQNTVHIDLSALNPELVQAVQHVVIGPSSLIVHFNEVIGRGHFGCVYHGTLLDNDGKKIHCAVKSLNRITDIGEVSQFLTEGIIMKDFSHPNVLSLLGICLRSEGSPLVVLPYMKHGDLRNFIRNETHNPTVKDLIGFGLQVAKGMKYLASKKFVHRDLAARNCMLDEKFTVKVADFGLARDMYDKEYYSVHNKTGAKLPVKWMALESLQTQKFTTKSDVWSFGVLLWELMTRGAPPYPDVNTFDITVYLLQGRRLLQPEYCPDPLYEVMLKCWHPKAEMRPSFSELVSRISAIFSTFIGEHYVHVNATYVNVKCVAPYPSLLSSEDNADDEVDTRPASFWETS", "experiment": "cell-based or functional assay"}, "Met [4]": {"target": "Met (Homo sapiens, UniProt P08581)", "sequence (P08581 25-1390)": "as above", "conditions": "comparison with In1B; cited from earlier work"}, "Met [5]": {"test_system": "Met", "experiment": "Effect of cycloheximide on In1B-dependent degradation and de-novo synthesis of Met", "type": "cell-based, human", "conditions": "HeLa cells pre-treated 90 minutes before In1B", "protocol": "FIG. 2 depicts the degradation and de-novo synthesis of Met. (A) HeLa cells were treated at the indicated times with 5 nM In1B and cellular extracts were blotted against Met. (B) Cells were treated as in A, but blotted at the same time with anti-Met antibody and Streptavidin. Stars indicate nonspecific bands recognized by streptavidin and the square indicates Met. (C) The experiment was performed as in A, but cells were pre-treated with […] of cycloheximide for 90 minutes before addition of In1B. (D) This experiment was performed as in A, but In1B was removed three minutes after it was added. Actin is shown as the loading control in A, C and D. The molecular mass of the markers is indicated in kDa.\nIn order to determine whether de-novo synthesis of Met occurred after In1B dependent-degradation, HeLa cells were pre-treated with cycloheximide, which inhibits protein synthesis, for 90 minutes before exposure to In1B."}}, "data": [{"molecule": "CC[C@H](C)[C@H](NC(=O)[C@H]([C@@H](C)CC)N(C)C(C)=O)C(=O)N[C@H](C(=O)N[C@@H](CC(C)C)C(=O)[C@@]1(C)CO1)[C@@H](C)O", "note": "[epoximycin]", "values": [{"measurement": "poly-ubiquitin (FK1) signal in cells treated with proteasome inhibitor", "setting": "[1]", "value": "stronger signals"}, {"measurement": "effect of inhibitor on In1B-dependent degradation of Met", "setting": "Met [2]", "value": "did not inhibit"}]}, {"molecule": "CO/C1=C\\C(C)=C\\[C@@H](C)[C@@H](O)[C@@H](C)C/C(C)=C/C=C/[C@H](OC)[C@@H]([C@@H](C)[C@@H](O)[C@H](C)[C@@]2(O)C[C@@H](O)[C@H](C)[C@@H](C(C)C)O2)OC1=O", "note": "[bafilomycin A1]", "values": [{"measurement": "effect of inhibitor on In1B-dependent degradation of Met", "setting": "Met [2]", "value": "significantly protected Met from degradation"}]}, {"molecule": "In1B (internalin B) of Listeria monocytogenes, purified soluble protein (ligand)", "values": [{"measurement": "Met phosphorylation (blot against phospho-tyrosine)", "setting": "[3]", "value": 2, "unit": "min"}, {"measurement": "kinetics of In1B-dependent ubiquitination of Met", "setting": "[3]", "value": 2, "unit": "min"}, {"measurement": "minimal amount of In1B necessary to trigger Met ubiquitination", "setting": "[3]", "value": 1.75, "unit": "nM"}]}, {"molecule": "CC(C)[C@H](O)[C@@]12NC(=O)[C@H](C)[C@@H]1OC2=O", "note": "[clasto-lactacystin-β-lactone]", "values": [{"measurement": "poly-ubiquitin (FK1) signal in cells treated with proteasome inhibitor", "setting": "[1]", "value": "stronger signals"}, {"measurement": "effect of inhibitor on In1B-dependent degradation of Met", "setting": "Met [2]", "value": "did not inhibit"}]}, {"molecule": "HGF: Met ligand (hepatocyte growth factor)", "values": [{"measurement": "time needed for a similar rate of Met degradation after activation with HGF", "setting": "Met [4]", "value": "two to five and two"}]}, {"molecule": "C[C@@H]1C[C@@H]([C@H](O)CC2CC(=O)NC(=O)C2)C(=O)[C@@H](C)C1", "note": "[cycloheximide]", "values": [{"measurement": "effect of cycloheximide on In1B-dependent degradation of Met", "setting": "Met [5]", "value": "did not prevent"}, {"measurement": "effect of cycloheximide on de-novo synthesis of Met after In1B", "setting": "Met [5]", "value": "strongly hampered"}]}, {"molecule": "Cl.N", "note": "[ammonium chloride]", "values": [{"measurement": "effect of inhibitor on In1B-dependent degradation of Met", "setting": "Met [2]", "value": "significantly protected Met from degradation"}]}]}
